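Exposure lasted 48 hours, with cells grown in 96-well plates and compounds tested at five concentrations. The concentration for 50% growth inhibition is given as GI50.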 Activity calls are given as the source filed them. Cut-off read from the data, not from the text of the source: active = GI50 up to about 1.1 µM and inactive = higher.
What was measured:
Assay in all cases: DTP human tumour cell line panel, 48 h
[1] = tested on: ACHN
[2] = tested on: BT-549
[3] = tested on: CCRF-CEM
[4] = tested on: HOP-62
[5] = tested on: Hs-578T
[6] = tested on: KM12
[7] = tested on: M14
[8] = tested on: MOLT-4
[9] = tested on: NCI-H226
[10] = tested on: NCI-H522
[11] = tested on: NCI/ADR-RES
[12] = tested on: OVCAR-3
[13] = tested on: SF-268
[14] = tested on: SF-295
[15] = tested on: SK-MEL-28
[16] = tested on: SNB-75
[17] = tested on: SW-620
[18] = tested on: TK-10
[19] = tested on: U-251
[20] = tested on: UACC-257

SMILES | GI50 [1] | GI50 [2] | GI50 [3] | GI50 [4] | GI50 [5] | GI50 [6] | GI50 [7] | GI50 [8] | GI50 [9] | GI50 [10] | GI50 [11] | GI50 [12] | GI50 [13] | GI50 [14] | GI50 [15] | GI50 [16] | GI50 [17] | GI50 [18] | GI50 [19] | GI50 [20]
O=C1/C(=C/c2ccc(O)cc2)CCc2ccc([N+](=O)[O-])cc21 | > 81.3 µM (inactive) | 31.3 µM (inactive) | 0.419 µM (active) | 73.5 µM (inactive) | 35.9 µM (inactive) | > 76 µM (inactive) | > 100 µM (inactive) | 3.63 µM (inactive) | 28.7 µM (inactive) | 2.65 µM (inactive) | 73.5 µM (inactive) | > 78.2 µM (inactive) | > 61.7 µM (inactive) | 63.1 µM (inactive) | > 100 µM (inactive) | 53.2 µM (inactive) | > 100 µM (inactive) | 45.2 µM (inactive) | 60.4 µM (inactive) | 97.7 µM (inactive)
CC(C)(O)CCC(O)C(C)(O)C1CCC2(O)C3=CC(=O)C4(O)CC(O)C(O)CC4(C)C3CCC12C.CC(C)(O)CCC(O)C(C)(O)C1CCC2(O)C3=CC(=O)C4CC(O)C(O)CC4(C)C3CCC12C (stereo not given) | > 100 µM (inactive) | > 100 µM (inactive) | > 100 µM (inactive) | > 100 µM (inactive) | > 100 µM (inactive) | > 100 µM (inactive) | > 100 µM (inactive) | > 100 µM (inactive) | > 100 µM (inactive) | > 100 µM (inactive) | > 100 µM (inactive) | > 100 µM (inactive) | > 100 µM (inactive) | > 100 µM (inactive) | > 100 µM (inactive) | > 100 µM (inactive) | > 100 µM (inactive) | > 100 µM (inactive) | > 100 µM (inactive) | > 100 µM (inactive)
O=C1c2c(Br)sc(Br)c2[C@@H](O)[C@H]1O | 18 µM (inactive) | 17.9 µM (inactive) | 2.32 µM (inactive) | 16.9 µM (inactive) | 23.1 µM (inactive) | 21.2 µM (inactive) | 13.1 µM (inactive) | 5.97 µM (inactive) | 17.6 µM (inactive) | 1.82 µM (inactive) | 22.4 µM (inactive) | 2.24 µM (inactive) | 10.8 µM (inactive) | 18.1 µM (inactive) | 19.5 µM (inactive) | 15.4 µM (inactive) | 3.28 µM (inactive) | 53.7 µM (inactive) | 7.48 µM (inactive) | 15.1 µM (inactive)
COc1c(OC(C)=O)c(OC(C)=O)cc2c1-c1ccc(SC)c(=O)cc1C(NC(C)=O)CC2 (stereo not given) | 11.6 µM (inactive) | 0.201 µM (active) | 0.384 µM (active) | 0.681 µM (active) | 0.22 µM (active) | 0.504 µM (active) | 0.698 µM (active) | 0.968 µM (active) | 7.82 µM (inactive) | 0.204 µM (active) | > 76.6 µM (inactive) | 0.142 µM (active) | 0.472 µM (active) | 1.45 µM (inactive) | 0.342 µM (active) | 0.299 µM (active) | 0.959 µM (active) | 15.3 µM (inactive) | 0.601 µM (active) | 3.72 µM (inactive)
COc1ccc(NC(=O)CC(=O)n2nc(C)c(/N=N/c3ccc(C)c(C)c3)c2C)cc1 | 82.6 µM (inactive) | > 100 µM (inactive) | > 100 µM (inactive) | 22.9 µM (inactive) | 25.2 µM (inactive) | > 100 µM (inactive) | > 100 µM (inactive) | 78.3 µM (inactive) | 51.3 µM (inactive) | > 100 µM (inactive) | > 100 µM (inactive) | > 100 µM (inactive) | 33.8 µM (inactive) | 54.7 µM (inactive) | > 100 µM (inactive) | 39.2 µM (inactive) | > 100 µM (inactive) | 55.1 µM (inactive) | 23 µM (inactive) | > 10 µM (inactive)

Source: ChEMBL document CHEMBL1201862, “PubChem BioAssay data set” (2004)
